Results as given in ChEMBL document CHEMBL5331089, “Mucormycosis: A hidden mystery of fungal infection, possible diagnosis, treatment and development of new therapeutic agents” (Eur J Med Chem, 2023).
Converted amounts (≈) assume the structure as drawn. One block for each compound: values may come before it.

Assays:
[1] = test system: Syncephalastrum racemosum; experiment: Antifungal activity against Syncephalastrum racemosum RCMB 016001 assessed as zone of inhibition measured after 24 hrs; type: functional
[2] = test system: Syncephalastrum racemosum; experiment: Antifungal activity against Syncephalastrum racemosum assessed as fungal growth inhibition measured for 24 to 24 hrs by agar well diffusion assay; type: functional, organism-based; conditions: for MIC: time 24-24 hrs
Mucor circinelloides [3] = experiment: Antifungal activity against Mucor circinelloides assessed as fungal growth inhibition measured at 36 to 48 hrs; type: functional; conditions: time 36-48 hrs
Rhizomucor pusillus [4] = experiment: Antifungal activity against Rhizomucor pusillus assessed as fungal growth inhibition measured at 36 to 48 hrs; type: functional; conditions: time 36-48 hrs
Rhizomucor pusillus [5] = experiment: Antifungal activity against Rhizomucor pusillus CN(M)231 assessed as fungal growth inhibition measured after 48 hrs by microtitre plate reader assay; type: functional
Rhizomucor pusillus [6] = experiment: Antifungal activity against Rhizomucor pusillus clinical isolate assessed as fungal growth inhibition measured after 48 hrs by microtitre plate reader analysis; type: functional
Rhizopus arrhizus [7] = experiment: Antifungal activity against Rhizopus oryzae clinical isolate assessed as fungal growth inhibition by checkerboard broth microdilution assay; type: functional
Mucorales = experiment: Antifungal activity against Mucorales assessed as fungal growth inhibition measured 24 to 48 hrs; type: functional; conditions: time 24-48 hrs
Lichtheimia corymbifera [8] = experiment: Antifungal activity against Absidia corymbifera SZMC 2010 assessed as fungal growth inhibition measured after 48 hrs by microtitre plate reader assay; type: functional
[9] = test system: Syncephalastrum racemosum; experiment: Antifungal activity against Syncephalastrum racemosum SZMC 2011 assessed as fungal growth inhibition measured after 24 hrs by microtitre plate reader assay; type: functional
Rhizopus arrhizus [10] = experiment: Antifungal activity against Rhizopus oryzae CBS 109939 assessed as fungal growth inhibition by checkerboard broth microdilution assay; type: functional
Absidia = experiment: Antifungal activity against Absidia assessed as fungal growth inhibition measured upto 48 hrs by spectrophotometric analysis; type: functional
Rhizopus delemar = experiment: Antifungal activity against Rhizopus delemar assessed as fungal growth inhibition; type: functional; conditions: read-out: MEC
Mucor circinelloides [11] = experiment: Antifungal activity against Mucor circinelloides assessed as fungal growth inhibition; type: functional; conditions: read-out: MEC
Mucor indicus = experiment: Antifungal activity against Mucor indicus assessed as fungal growth inhibition; type: functional; conditions: read-out: MEC
Lichtheimia corymbifera [12] = experiment: Antifungal activity against Absidia corymbifera assessed as fungal growth inhibition; type: functional; conditions: read-out: MEC
Rhizopus arrhizus [13] = experiment: Antifungal activity against Rhizopus oryzae assessed as fungal growth inhibition; type: functional; conditions: read-out: MEC
Rhizomucor pusillus [14] = experiment: Antifungal activity against environmental and clinical isolate Rhizomucor pusillus assessed as fungal growth inhibition measured after 24 to 48 hrs by plate reader assay; type: functional; conditions: time 24-48 hrs
Mucor circinelloides [15] = experiment: Antifungal activity against Mucor circinelloides clinical isolate assessed as fungal growth inhibition; type: functional
Rhizomucor miehei [16] = experiment: Antifungal activity against environmental and clinical isolate Rhizomucor miehei assessed as fungal growth inhibition measured after 24 to 48 hrs by plate reader assay; type: functional; conditions: time 24-48 hrs
[17] = test system: Cunninghamella bertholletiae; experiment: Antifungal activity against Cunninghamella bertholletiae clinical isolate assessed as fungal growth inhibition; type: functional
Rhizopus homothallicus = experiment: Antifungal activity against Rhizopus homothallicus clinical isolate assessed as fungal growth inhibition; type: functional
Rhizopus arrhizus [18] = experiment: Antifungal activity against Rhizopus oryzae clinical isolate assessed as fungal growth inhibition measured after 24 to 72 hrs by microtitre plate reader analysis; type: functional; conditions: time 24-72 hrs
Rhizopus arrhizus [19] = experiment: Antifungal activity against Rhizopus oryzae clinical isolate assessed as fungal growth inhibition; type: functional
Rhizomucor miehei [20] = experiment: Antifungal activity against Rhizomucor miehei CBS 360.92 assessed as fungal growth inhibition measured after 48 hrs by microtitre plate reader assay; type: functional
[21] = Antifungal activity against Rhizopus microsporus var. oligosporus NRRL 514 assessed as fungal growth inhibition measured after 48 hrs by microtitre plate reader assay; type: functional

SMILES: CCOC(=O)N1C/C(=C\c2ccc(Cl)cc2)C(=O)[C@@]2(C1)[C@H](c1ccc(Cl)cc1)CN(C)[C@]21C(=O)Nc2ccccc21
inhibition zone (IZ) [1]: 39.46 mm
IC50 [2]: 16.4 µg/mL (≈ 27.7 µM)
MIC [2]: 1.95 µg/mL (≈ 3.3 µM)

SMILES: C[C@@H](c1ncncc1F)[C@](O)(Cn1cncn1)c1ccc(F)cc1F [VORICONAZOLE]
MIC (Mucor circinelloides [3]): > 8 µg/mL
MIC (Rhizomucor pusillus [4]): > 8 µg/mL

SMILES: CCOC(=O)N1C/C(=C\c2cc(OC)c(OC)c(OC)c2)C(=O)[C@@]2(C1)[C@H](c1cc(OC)c(OC)c(OC)c1)CN(C)[C@]21C(=O)Nc2ccccc21
inhibition zone (IZ) [1]: 39.46 mm

SMILES: CCOC(=O)N1C/C(=C\c2ccc(F)c(F)c2)C(=O)[C@@]2(C1)[C@H](c1ccc(F)c(F)c1)[C@H]1CCCN1[C@]21C(=O)Nc2ccccc21
IC50 [2]: 11.3 µg/mL (≈ 18.3 µM)
MIC [2]: 1.95 µg/mL (≈ 3.15 µM)

SMILES: CCOC(=O)N1C/C(=C\c2ccc([N+](=O)[O-])cc2)C(=O)[C@@]2(C1)[C@H](c1ccc([N+](=O)[O-])cc1)[C@H]1CCCN1[C@]21C(=O)Nc2ccccc21
inhibition zone (IZ) [1]: 39.46 mm
IC50 [2]: 10.6 µg/mL (≈ 16.7 µM)
MIC [2]: 0.49 µg/mL (≈ 0.768 µM)

SMILES: CC[C@@H]([C@H](C)O)n1ncn(-c2ccc(N3CCN(c4ccc(OC[C@@H]5CO[C@@](Cn6cncn6)(c6ccc(F)cc6F)C5)cc4)CC3)cc2)c1=O [POSACONAZOLE]
MIC (Mucorales): 1 µg/mL (≈ 1.43 µM)
MIC (Rhizomucor pusillus [4]): > 8 µg/mL

SMILES: C[C@@H]1C[C@H]1/C=C/[C@@H]1C[C@H]1[C@@H]1C[C@H]1[C@@H]1C[C@H]1[C@@H]1C[C@H]1/C=C/C=C/C(=O)NC[C@H]1O[C@@H](N2CCC(=O)NC2=O)[C@H](O)[C@@H]1O
minimal effective concentration (Rhizopus delemar): 0.016 µg/mL
minimal effective concentration (Mucor circinelloides [11]): 0.016 µg/mL
minimal effective concentration (Mucor indicus): ≤ 0.008 µg/mL
minimal effective concentration (Lichtheimia corymbifera [12]): ≤ 0.008 µg/mL
minimal effective concentration (Rhizopus arrhizus [13]): ≤ 0.008 µg/mL

SMILES: CCOC(=O)N1C/C(=C\c2ccc(F)cc2)C(=O)[C@@]2(C1)[C@H](c1ccc(F)cc1)CN(C)[C@]21C(=O)Nc2ccccc21
inhibition zone (IZ) [1]: 39.46 mm

SMILES: CCC(C)(C)C(=O)O[C@H]1C[C@@H](C)C=C2C=C[C@H](C)[C@H](CC[C@@H](O)C[C@@H](O)CC(=O)O)[C@H]21 [TENIVASTATIN]
MIC90 (Lichtheimia corymbifera [8]): 11 µg/mL (≈ 25.2 µM)
MIC90 (Rhizomucor pusillus [5]): 1.2 µg/mL (≈ 2.75 µM)
MIC90 [21]: 33 µg/mL (≈ 75.6 µM)

Further lines, with some results ahead:

MIC (Rhizomucor pusillus [5]): 1 µg/mL (≈ 1.08 µM)
MIC (Rhizomucor pusillus [6]): 2 µg/mL (≈ 2.16 µM)
MIC90 (Rhizomucor pusillus [6]): 1 µg/mL (≈ 1.08 µM)
MIC (Rhizopus arrhizus [7]): 2 µg/mL
MIC [2]: 1.95 µg/mL (≈ 2.11 µM)
SMILES: C[C@@H]1[C@H](O)[C@@H](C)/C=C/C=C/C=C/C=C/C=C/C=C/C=C/[C@H](O[C@@H]2O[C@H](C)[C@@H](O)[C@H](N)[C@@H]2O)C[C@@H]2O[C@](O)(C[C@@H](O)C[C@@H](O)[C@H](O)CC[C@@H](O)C[C@@H](O)CC(=O)O[C@H]1C)C[C@H](O)[C@H]2C(=O)O [AMPHOTERICIN B]
inhibition zone (IZ) [1]: 22 mm
IC50 [2]: 14.3 µg/mL (≈ 15.4 µM)

MIC90 (Lichtheimia corymbifera [8]): 96 µg/mL (≈ 229 µM)
MIC90 (Rhizomucor pusillus [5]): 11 µg/mL (≈ 26.3 µM)
MIC [9]: 8 µg/mL (≈ 19.1 µM)
MIC (Rhizopus arrhizus [10]): 64 µg/mL
SMILES: CCC(C)(C)C(=O)O[C@H]1C[C@@H](C)C=C2C=C[C@H](C)[C@H](CC[C@@H]3C[C@@H](O)CC(=O)O3)[C@H]21 [SIMVASTATIN]

MIC (Mucor circinelloides [3]): > 8 µg/mL
MIC (Absidia): 0.03 µg/mL (≈ 0.0425 µM)
SMILES: CCC(C)n1ncn(-c2ccc(N3CCN(c4ccc(OCC5COC(Cn6cncn6)(c6ccc(Cl)cc6Cl)O5)cc4)CC3)cc2)c1=O (stereo not drawn) [ITRACONAZOLE]

MIC (Rhizomucor pusillus [14]): 1 µg/mL (≈ 2.47 µM)
MIC (Mucor circinelloides [15]): 16 µg/mL (≈ 39.6 µM)
MIC90 (Rhizomucor pusillus [5]): 3.6 µg/mL (≈ 8.9 µM)
MIC (Rhizomucor miehei [16]): 64 µg/mL (≈ 158 µM)
MIC [17]: 32 µg/mL (≈ 79.1 µM)
MIC [9]: 16 µg/mL (≈ 39.6 µM)
MIC (Rhizopus arrhizus [10]): 128 µg/mL
MIC (Rhizopus homothallicus): 40 µg/mL (≈ 98.9 µM)
MIC (Rhizopus arrhizus [18]): 128 µg/mL (≈ 316 µM)
MIC (Rhizopus arrhizus [19]): 32.6 µg/mL (≈ 80.5 µM)
SMILES: CC[C@H](C)C(=O)O[C@H]1C[C@@H](C)C=C2C=C[C@H](C)[C@H](CC[C@@H]3C[C@@H](O)CC(=O)O3)[C@H]21 [LOVASTATIN]

MIC90 (Lichtheimia corymbifera [8]): 11 µg/mL (≈ 26 µM)
MIC90 (Rhizomucor pusillus [5]): 11 µg/mL (≈ 26 µM)
MIC90 (Rhizomucor miehei [20]): 11 µg/mL (≈ 26 µM)
SMILES: CC[C@H](C)C(=O)O[C@H]1C[C@@H](C)C=C2C=C[C@H](C)[C@H](CC[C@@H](O)C[C@@H](O)CC(=O)O)[C@H]21 [LOVASTATIN ACID]
